Reference: patent US12532889B2, “Herbicidal compositions comprising glufosinate” (BASF SE, priority 2023, dated 2026)
Where “and” joins values, the source holds several entries; their conditions need not be identical. Identical values can stand only once.

Experiments:
Assay in all cases: Post-emergence application in field trials (Example A)
Assay type in all cases: in vivo
[1] = tested on: HORVW (Hordeum vulgare (winter barley))
Method: (§1) In the examples below, using the method of S. R. Colby (1967) “Calculating synergistic and antagonistic responses of herbicide combinations”, Weeds 15, p. 22ff., the value E, which is expected if the activity of the individual active compounds is only additive, was calculated:
(§2) [formula] • where • X=percent activity using active herbicide A at an application rate a; • Y=percent activity using active herbicide B (e.g. glufosinate) at an application rate b; • E=expected activity (in %) by A+B at application rates a+b.
(§3) If the value found experimentally is higher than the value E calculated according to Colby, a synergistic effect is present.
(§4) On field test sites, natural weed infestation or seeded weeds were treated post-emergence of the weeds.
(§5) In the field trials, the weeds were treated as indicated below.
(§6) In the following experiments, the herbicidal activity for the individual herbicidal compositions (solo and mixture applications) was assessed at the indicated days after treatment (DAT). The assessments for the damage on undesired weeds caused by the composition was carried out using a scale from 0 to 100%, compared to the untreated control plants. Here, 0 means no damage and 100 means complete destruction of the plants.

[2] = tested on: CYPKH (Cyperus kyllingia var. humilis); conditions: Table 5.4; CYPKH growth stage 76-77, height 13-14 cm; A-1 25, B-6 252 g ai/ha; 28 DAT; water 400 l/ha
Method: as §1, §2, §3, §4, §5, §6

[3] = tested on: CYNDA (Cynodon dactylon); conditions: A-1 25, B-6 252 g ai/ha, 28 DAT, water 400 l/ha
Method: as §1, §2, §3, §4, §5, §6

[4] = tested on: ECHCG (Echinocloa crus-galli)
Method: as §1, §2, §3, §4, §5, §6

[5] = tested on: COMDI (Commelina diffusa); conditions: Table 5.3; COMDI growth stage 76-77; A-1 25, B-6 252 g ai/ha; 28 DAT; water 300 l/ha
Method: as §1, §2, §3, §4, §5, §6

[6] = tested on: ZEAMX (Zea mays)
Method: as §1, §2, §3, §4, §5, §6

[7] = tested on: SETPA (Setaria palmifolia); conditions: Table 5.3; SETPA growth stage 76-77; A-1 25, B-6 252 g ai/ha; 28 DAT; water 300 l/ha
Method: as §1, §2, §3, §4, §5, §6

[8] = tested on: GLXMA (Glycine max); conditions: 21 DAT; B-6 252 g ai/ha; growth stage 13; height 5-10 cm
Method: as §1, §2, §3, §4, §5, §6

[9] = tested on: DIGSA (Digitaria sanguinalis); conditions: for % Herbicidal activity: growth stage 22
Method: as §1, §2, §3, §4, §5, §6

[10] = tested on: LOLMU (Lolium multiflorum); conditions: for % Herbicidal activity: B-6 252 g ai/ha, growth stage 22-25, height 20-25 cm; for % herbicidal activity: Table 6.1, LOLMU growth stage 22-25, height 20-25 cm, 200 l/ha water
Method: as §1, §2, §3, §4, §5, §6

[11] = 21 DAT, B-6 252 g ai/ha, growth stage 23-29, height 20-25 cm
[12] = 21 DAT, B-6 150 g ai/ha, growth stage 23-30, height 15-20 cm
[13] = 21 DAT, B-6 252 g ai/ha, growth stage 23-30, height 15-20 cm
[14] = 42 DAT, B-6 252 g ai/ha, growth stage 15-16, height 27-33 cm

CP(=O)(O)CC[C@H](N)C(=O)O.N [B-6, glufosinate-P-ammonium]
% Herbicidal activity ([1]; 7 DAT, B-6 150 g ai/ha, growth stage 23-29, height 20-25 cm): 0%
% Herbicidal activity ([1]; 7 DAT, B-6 252 g ai/ha, growth stage 23-29, height 20-25 cm): 50% and 30%
% Herbicidal activity ([1]; 21 DAT, B-6 150 g ai/ha, growth stage 23-29, height 20-25 cm): 0%
% Herbicidal activity [1, 11]: 70%
% herbicidal activity [1, 11]: 30% and 40%
% herbicidal activity ([1]; Table 6.1, HORVW growth stage 23-29, height 20-25 cm, A-1 12.5, B-6 150 g ai/ha, 7 DAT, 200 l/ha water): 0%
% herbicidal activity ([1]; Table 6.1, HORVW growth stage 23-29, height 20-25 cm, A-1 12.5, B-6 252 g ai/ha, 7 DAT, 200 l/ha water): 50%
% herbicidal activity ([1]; Table 6.1, HORVW growth stage 23-29, height 20-25 cm, A-1 18, B-6 150 g ai/ha, 7 DAT, 200 l/ha water): 0%
% herbicidal activity ([1]; Table 6.1, HORVW growth stage 23-29, height 20-25 cm, A-1 18, B-6 252 g ai/ha, 7 DAT, 200 l/ha water): 40%
% herbicidal activity [2]: 48%
% herbicidal activity ([3]; Table 5.4, CYNDA growth stage 76-77, height 15-16 cm): 88%
% herbicidal activity ([3]; Table 5.5, CYNDA growth stage 72): 86%
% Herbicidal activity ([4]; 7 DAT, B-6 252 g ai/ha, growth stage 23-30, height 15-20 cm): 60%
% Herbicidal activity [4, 12]: 40%
% herbicidal activity [4, 12]: 40%
% Herbicidal activity [4, 13]: 70%
% herbicidal activity [4, 13]: 70%
% Herbicidal activity ([4]; 28 DAT, B-6 252 g ai/ha, growth stage 23-30, height 15-20 cm): 70% and 60%
% herbicidal activity ([4]; Table 6.1, ECHCG growth stage 23-30, height 15-20 cm, A-1 12.5, B-6 150 g ai/ha, 7 DAT, 200 l/ha water): 50%
% herbicidal activity ([4]; Table 6.1, ECHCG growth stage 23-30, height 15-20 cm, A-1 12.5, B-6 252 g ai/ha, 7 DAT, 200 l/ha water): 60%
% herbicidal activity ([4]; Table 6.1, ECHCG growth stage 23-30, height 15-20 cm, A-1 18, B-6 150 g ai/ha, 7 DAT, 200 l/ha water): 50%
% herbicidal activity ([4]; Table 6.1, ECHCG growth stage 23-30, height 15-20 cm, A-1 18, B-6 252 g ai/ha, 7 DAT, 200 l/ha water): 60%
% herbicidal activity [5]: 39%
% Herbicidal activity ([6]; 21 DAT, B-6 252 g ai/ha, growth stage 15-16, height 27-33 cm): 65%
% herbicidal activity ([6]; 21 DAT, B-6 252 g ai/ha, growth stage 15-16, height 50-60 cm): 30%
% Herbicidal activity ([6]; 28 DAT, B-6 252 g ai/ha, growth stage 15-16, height 50-60 cm): 75%
% Herbicidal activity [6, 14]: 45% and 50%
% herbicidal activity [6, 14]: 45%
% herbicidal activity ([6]; Table 6.1, ZEAMX growth stage 15-16, height 50-60 cm, A-1 18, B-6 252 g ai/ha, 7 DAT, 200 l/ha water): 65%
% herbicidal activity [7]: 32%
% herbicidal activity [8]: 70%
% Herbicidal activity ([9]; 7 DAT, B-6 252 g ai/ha, height 10-15 cm): 75%
% herbicidal activity ([9]; 21 DAT, B-6 252 g ai/ha, growth stage 21-22, height 10-15 cm): 20%
% Herbicidal activity ([9]; 21 DAT, B-6 252 g ai/ha, height 10-15 cm): 80%
% Herbicidal activity ([9]; 42 DAT, B-6 252 g ai/ha, height 10-15 cm): 50%
% herbicidal activity ([9]; Table 6.1, DIGSA growth stage 21-22, height 10-15 cm, A-1 18, B-6 252 g ai/ha, 7 DAT, 200 l/ha water): 30%
% Herbicidal activity ([10]; 7 DAT): 60%
% Herbicidal activity ([10]; 28 DAT): 40%
% herbicidal activity ([10]; A-1 12.5, B-6 252 g ai/ha, 7 DAT): 60%
% herbicidal activity ([10]; A-1 18, B-6 252 g ai/ha, 7 DAT): 60%
